The target in assay [1] is Cyclin-dependent kinase 2/G1/S-specific cyclin-E1 (Homo sapiens, UniProt P24941). Briefly: CDK2/Cyclin E and CDK4/Cyclin D1 Kinase Assay. The conditions noted are these: pH 7.5; 30 °C. On the procedure:
(§1) The enzyme was assayed with substrate GST-Rb in the presence of 10 uM ATP/[gamma-33P] ATP, and capturing the 33-P labeled reaction products on GSH-Sepharose beads. […] Use of 33P-labeled ATP allows this transfer to be monitored by scintillation counting.

Assay [2] deals with Cyclin-dependent kinase 4/G1/S-specific cyclin-D1 (Homo sapiens, UniProt P11802). Briefly: CDK2/Cyclin E and CDK4/Cyclin D1 Kinase Assay. The conditions noted are these: pH 7.5; 30 °C. On the procedure: as §1
Sequence of Cyclin-dependent kinase 4/G1/S-specific cyclin-D1 (P11802 whole entry): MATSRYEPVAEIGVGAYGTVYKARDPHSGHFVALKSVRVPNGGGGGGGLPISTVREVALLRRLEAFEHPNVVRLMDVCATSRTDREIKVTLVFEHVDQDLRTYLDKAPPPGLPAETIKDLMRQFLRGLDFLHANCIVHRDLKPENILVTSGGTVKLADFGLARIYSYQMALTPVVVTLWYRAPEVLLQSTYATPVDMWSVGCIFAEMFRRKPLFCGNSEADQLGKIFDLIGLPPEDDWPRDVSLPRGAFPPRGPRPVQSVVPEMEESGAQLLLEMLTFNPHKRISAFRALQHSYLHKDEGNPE
Sequence of Cyclin-dependent kinase 4/G1/S-specific cyclin-D1 (P24385 whole entry, further chain): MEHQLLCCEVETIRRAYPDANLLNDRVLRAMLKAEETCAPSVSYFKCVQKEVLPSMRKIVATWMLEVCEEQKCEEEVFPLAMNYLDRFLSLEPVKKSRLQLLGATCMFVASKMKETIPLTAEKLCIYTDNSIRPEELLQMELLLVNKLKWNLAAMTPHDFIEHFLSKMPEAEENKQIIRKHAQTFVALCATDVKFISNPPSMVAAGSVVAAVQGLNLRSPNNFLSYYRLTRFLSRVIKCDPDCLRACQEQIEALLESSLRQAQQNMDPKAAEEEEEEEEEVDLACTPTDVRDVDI
The target of assay [3] is Cyclin-dependent kinase/G2/mitotic-specific cyclin- 1 (Homo sapiens, UniProt P06493). The assay can be described thus: CDK1/Cyclin B Kinase SPA Assay. The conditions noted are these: pH 8; 30 °C. On the procedure: The biochemical activity of compounds was determined by incubation with specific enzyme and substrate in the presence 0.5 uM ATP/ [gamma-33P] ATP. After incubation, the reaction was stopped and the phosphorylated substrate was separated from nonincorporated radioactive ATP using Streptavidin-coated SPA beads, counted using TopCount (Packard) to measure substrate-incorporated phosphate.
Sequence of Cyclin-dependent kinase/G2/mitotic-specific cyclin- 1 (P06493 whole entry): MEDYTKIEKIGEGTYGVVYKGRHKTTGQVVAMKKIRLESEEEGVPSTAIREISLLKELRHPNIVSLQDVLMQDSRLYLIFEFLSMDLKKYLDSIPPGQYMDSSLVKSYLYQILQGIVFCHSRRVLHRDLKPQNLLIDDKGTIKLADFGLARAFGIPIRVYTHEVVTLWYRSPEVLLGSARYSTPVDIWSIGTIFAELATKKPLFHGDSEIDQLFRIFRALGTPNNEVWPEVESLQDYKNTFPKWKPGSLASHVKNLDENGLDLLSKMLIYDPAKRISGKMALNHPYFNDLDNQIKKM
Sequence of Cyclin-dependent kinase/G2/mitotic-specific cyclin- 1 (P14635 whole entry, further chain): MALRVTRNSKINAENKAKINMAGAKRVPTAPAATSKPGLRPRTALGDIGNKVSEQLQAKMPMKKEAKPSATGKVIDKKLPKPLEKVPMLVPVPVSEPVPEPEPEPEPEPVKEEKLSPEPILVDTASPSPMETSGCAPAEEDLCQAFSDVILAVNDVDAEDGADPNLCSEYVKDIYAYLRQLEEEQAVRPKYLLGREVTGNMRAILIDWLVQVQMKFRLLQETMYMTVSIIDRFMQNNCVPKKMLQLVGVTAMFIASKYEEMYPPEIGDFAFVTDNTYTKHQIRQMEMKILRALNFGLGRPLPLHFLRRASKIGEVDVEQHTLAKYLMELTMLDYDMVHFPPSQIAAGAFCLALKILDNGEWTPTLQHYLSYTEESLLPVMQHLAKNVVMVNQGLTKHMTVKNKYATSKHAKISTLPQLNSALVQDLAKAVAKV

Molecules are shown by their SMILES.

As to `C[C@@H](Nc1nc(N[C@H]2CC[C@H](N)CC2)nc2c1ncn2C1CCCC1)c1ccccc1` [2,6,9-trisubstituted adenine derivative], the half-maximal inhibitory concentration (IC50) (usually the point on the concentration scale where inhibition reaches its midpoint) turned out to be 720 nM in assay [1], 8800 nM in assay [2] and 2000 nM in assay [3].

The record behind these values is BindingDB's records for doi:10.1021/jm001043t (Lawrence Berkeley National Laboratory, 2001).
